pIC50: −log10 of the molar value.
Experiments:
IKKε = IKKε (Homo sapiens (Human), UniProt Q14164); test: TR-FRET kinase assay, IKKε; assay type: biochemical; details: full length recombinant IKKε 0.3 nM, 2x Km ATP, 1 μM peptide, 240 min at 25° C.; geometric mean of minimum four determinations
Source text: Biological Assay for TBK1 and IKKs:

TBK1 = TBK1 (Homo sapiens (Human), UniProt Q9UHD2); test: TR-FRET kinase assay, TBK1; details: read-out: TBK1-IC50; full length recombinant TBK1 2.5 nM, 2x Km ATP, 1 μM peptide, 240 min at 25° C.; geometric mean of minimum four determinations
Sequence of TBK1 (Q9UHD2 whole entry): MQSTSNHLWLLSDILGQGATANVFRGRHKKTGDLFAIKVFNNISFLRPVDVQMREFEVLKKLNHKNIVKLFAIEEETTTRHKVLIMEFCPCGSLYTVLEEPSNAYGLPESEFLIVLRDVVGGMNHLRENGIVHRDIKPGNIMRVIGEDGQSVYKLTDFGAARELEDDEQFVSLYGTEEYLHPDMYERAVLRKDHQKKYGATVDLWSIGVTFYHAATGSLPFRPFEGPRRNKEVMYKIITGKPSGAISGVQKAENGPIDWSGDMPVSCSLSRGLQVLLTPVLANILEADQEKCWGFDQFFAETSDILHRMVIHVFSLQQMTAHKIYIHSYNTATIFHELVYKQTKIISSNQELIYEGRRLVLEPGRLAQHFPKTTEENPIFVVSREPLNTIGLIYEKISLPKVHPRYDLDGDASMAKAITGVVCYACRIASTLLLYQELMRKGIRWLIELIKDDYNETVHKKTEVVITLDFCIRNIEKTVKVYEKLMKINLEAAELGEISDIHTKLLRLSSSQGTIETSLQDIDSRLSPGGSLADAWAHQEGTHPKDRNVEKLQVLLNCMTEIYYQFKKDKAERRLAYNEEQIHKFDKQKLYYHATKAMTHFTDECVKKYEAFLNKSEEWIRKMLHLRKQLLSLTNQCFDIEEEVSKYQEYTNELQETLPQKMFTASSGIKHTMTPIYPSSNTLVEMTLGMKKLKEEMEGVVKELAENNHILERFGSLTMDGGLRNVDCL

Sequence of IKKε (Q14164 whole entry): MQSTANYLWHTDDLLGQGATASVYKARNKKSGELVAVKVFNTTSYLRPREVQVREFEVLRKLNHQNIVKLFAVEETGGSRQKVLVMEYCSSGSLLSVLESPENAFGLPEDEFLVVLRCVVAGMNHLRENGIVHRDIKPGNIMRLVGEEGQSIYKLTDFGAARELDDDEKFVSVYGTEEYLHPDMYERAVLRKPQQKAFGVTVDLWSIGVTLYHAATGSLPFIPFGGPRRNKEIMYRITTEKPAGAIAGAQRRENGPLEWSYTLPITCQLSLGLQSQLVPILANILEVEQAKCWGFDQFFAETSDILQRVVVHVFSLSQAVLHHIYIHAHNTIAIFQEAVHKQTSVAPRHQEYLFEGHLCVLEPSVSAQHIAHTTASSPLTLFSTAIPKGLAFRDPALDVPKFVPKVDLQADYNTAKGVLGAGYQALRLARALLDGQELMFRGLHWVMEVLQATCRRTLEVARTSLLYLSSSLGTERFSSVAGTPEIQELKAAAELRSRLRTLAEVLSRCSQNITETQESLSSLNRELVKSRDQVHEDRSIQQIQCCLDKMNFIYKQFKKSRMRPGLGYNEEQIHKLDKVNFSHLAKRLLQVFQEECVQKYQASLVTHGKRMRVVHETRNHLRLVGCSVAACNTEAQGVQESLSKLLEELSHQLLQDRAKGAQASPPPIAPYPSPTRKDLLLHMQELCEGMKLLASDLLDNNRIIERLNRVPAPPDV

Compound | pIC50 (IKKε) | pIC50 (TBK1)
N#Cc1cc(-c2ncnc3[nH]c(-c4ccc(C5CCN(CC(F)(F)F)CC5)cc4)nc23)ccc1OC1CCN(C(=O)CO)CC1 [Example 257, 2-((1-(2-hydroxyacetyl)piperidin-4-yl)oxy)-5-(8-(4-(1-(2,2,2-trifluoroethyl)piperidin-4-yl)phenyl)-9H-purin-6-yl)benzonitrile] | 7.86 | 8.42
N#Cc1cc(-c2ccnc3[nH]c(C4=CCC5(CC4)OCCO5)cc23)ccc1OC1CCOCC1 [Example 180, 5-(2-(1,4-dioxaspiro[4.5]dec-7-en-8-yl)-1H-pyrrolo[2,3-b]pyridin-4-yl)-2-((tetrahydro-2H-pyran-4-yl)oxy)benzonitrile] | 7.68 | 8.51
N#Cc1cc(-c2ncnc3[nH]c(-c4ccc(C5CCN(CC(F)F)CC5)cc4)nc23)ccc1OC1CCN(C(=O)CO)CC1 [Example 255, 5-(8-(4-(1-(2,2-difluoroethyl)piperidin-4-yl)phenyl)-9H-purin-6-yl)-2-((1-(2-hydroxyacetyl)piperidin-4-yl)oxy)benzonitrile] | 8.46 | 8.82
N#Cc1cc(-c2ccnc3[nH]c(-c4ccc(N5CCOCC5)cc4)cc23)ccc1N1CC(O)C1 [Example 193, 2-(3-hydroxyazetidin-1-yl)-5-(2-(4-morpholinophenyl)-1H-pyrrolo[2,3-b]pyridin-4-yl)benzonitrile] | 7.81 | 8.48
CC(C)(C)OC(=O)N1CCC(Oc2ccc(-c3ncnc4[nH]c(-c5ccc(N6CCOCC6)c(F)c5)nc34)cc2C#N)CC1 [Example 245, tert-butyl 4-(2-cyano-4-(8-(3-fluoro-4-morpholinophenyl)-9H-purin-6-yl)phenoxy)piperidine-1-carboxylate] | 6.00 | 6.00
N#Cc1cc(-c2ccnc3[nH]c(-c4cccnc4)cc23)ccc1OC1CCOCC1 [Example 7, 5-(2-(pyridin-3-yl)-1H-pyrrolo[2,3-b]pyridin-4-yl)-2-((tetrahydro-2H-pyran-4-yl)oxy)benzonitrile] | 7.77 | 7.93
CS(=O)(=O)c1ccc(-c2cc3c(-c4ccc(OC5CCOCC5)c(C#N)c4)ccnc3[nH]2)cc1 [Example 42, 5-(2-(4-(methylsulfonyl)phenyl)-1H-pyrrolo[2,3-b]pyridin-4-yl)-2-((tetrahydro-2H-pyran-4-yl)oxy)benzonitrile] | 8.19 | 8.43
CN(C)CC(=O)N1CC[C@@H](Oc2ccc(-c3ccnc4[nH]c(-c5ccc(N6CCOCC6)cc5)cc34)cc2C#N)C1 [Example 30, (R)-2-((1-(2-(dimethylamino)acetyl)pyrrolidin-3-yl)oxy)-5-(2-(4-morpholinophenyl)-1H-pyrrolo[2,3-b]pyridin-4-yl)benzonitrile] | 6.87 | 7.15
N#Cc1cc(-c2ccnc3[nH]c(C(=O)NC4CC4)cc23)ccc1OC1CCOCC1 [Example 59, 4-(3-cyano-4-((tetrahydro-2H-pyran-4-yl)oxy)phenyl)-N-cyclopropyl-1H-pyrrolo[2,3-b]pyridine-2-carboxamide] | 7.26 | 7.10
N#Cc1cc(-c2ccnc3[nH]c(-c4ccc5c(c4)C(=O)NC5)cc23)ccc1OC1CCOCC1 [Example 74, 5-(2-(3-oxoisoindolin-5-yl)-1H-pyrrolo[2,3-b]pyridin-4-yl)-2-((tetrahydro-2H-pyran-4-yl)oxy)benzonitrile] | < 6.00 | 8.02
N#Cc1cc(-c2ccnc3[nH]c(-c4ccc(N5CCOCC5)cc4)cc23)ccc1O[C@@H]1CCN(C(=O)CO)C1 [Example 15, (R)-2-((1-(2-hydroxyacetyl)pyrrolidin-3-yl)oxy)-5-(2-(4-morpholinophenyl)-1H-pyrrolo[2,3-b]pyridin-4-yl)benzonitrile] | 8.61 | 8.87
N#Cc1cc(-c2ccnc3[nH]c(C(=O)Nc4ccccc4)cc23)ccc1OC1CCOCC1 [Example 61, 4-(3-cyano-4-((tetrahydro-2H-pyran-4-yl)oxy)phenyl)-N-phenyl-1H-pyrrolo[2,3-b]pyridine-2-carboxamide] | 6.95 | 6.51
N#Cc1cc(-c2ncnc3[nH]c(-c4cccc(N5CCOCC5)c4)cc23)ccc1CN1CCOCC1 [Example 113, 2-(morpholinomethyl)-5-(6-(3-morpholinophenyl)-7H-pyrrolo[2,3-d]pyrimidin-4-yl)benzonitrile] | 6.00 | 7.16
CC(C)(C)OC(=O)N1CC[C@H](Oc2ccc(-c3ccnc4[nH]c(-c5ccc(N6CCOCC6)cc5)cc34)cc2C#N)C1 [Example 25, (S)-tert-butyl 3-(2-cyano-4-(2-(4-morpholinophenyl)-1H-pyrrolo[2,3-b]pyridin-4-yl)phenoxy)pyrrolidine-1-carboxylate] | 6.51 | 6.94
COc1cc(C#N)cc(-c2ccnc3[nH]c(-c4ccc(N5CCOCC5)cc4)cc23)c1 [Example 33, 3-methoxy-5-(2-(4-morpholinophenyl)-1H-pyrrolo[2,3-b]pyridin-4-yl)benzonitrile] | < 6.00 | 7.84
N#Cc1cc(-c2ccnc3[nH]c(-c4cccc(N5CCOCC5)c4)cc23)ccc1OC1CCOCC1 [Example 78, 5-(2-(3-morpholinophenyl)-1H-pyrrolo[2,3-b]pyridin-4-yl)-2-((tetrahydro-2H-pyran-4-yl)oxy)benzonitrile] | 7.40 | 7.59
N#Cc1cc(-c2ncnc3[nH]c(-c4ccc(N5CCOCC5)cc4)cc23)ccc1N1CC(O)C1 [Example 199, 2-(3-hydroxyazetidin-1-yl)-5-(6-(4-morpholinophenyl)-7H-pyrrolo[2,3-d]pyrimidin-4-yl)benzonitrile] | 6.00 | 8.67
N#Cc1cc(-c2ncnc3[nH]c(-c4ccc(N5CCOCC5)c(F)c4)cc23)ccc1OC1CCOCC1 [Example 156, 5-(6-(3-fluoro-4-morpholinophenyl)-7H-pyrrolo[2,3-d]pyrimidin-4-yl)-2-((tetrahydro-2H-pyran-4-yl)oxy)benzonitrile] | 7.85 | 8.56
N#Cc1cc(-c2ncnc3[nH]c(-c4ccc(N5CCOCC5)cc4)nc23)ccc1OC1CCN(C(=O)CO)CC1 [Example 205, 2-((1-(2-hydroxyacetyl)piperidin-4-yl)oxy)-5-(8-(4-morpholinophenyl)-9H-purin-6-yl)benzonitrile] | 8.33 | 8.68
N#Cc1cc(-c2ncnc3[nH]c(-c4ccc(Cn5ccnc5)cc4)cc23)ccc1OC1CCOCC1 [Example 114, 5-(6-(4-((1H-imidzol-1-yl)methyl)phenyl)-7H-pyrrolo[2,3-d]pyrimidin-4-yl)-2-((tetrahydro-2H-pyran-4-yl)oxy)benzonitrile] | 8.24 | 8.29
N#Cc1cc(-c2ncnc3[nH]c(-c4ccc(=O)[nH]c4)cc23)ccc1OC1CCOCC1 [Example 183, 5-(6-(6-oxo-1,6-dihydropyridin-3-yl)-7H-pyrrolo[2,3-d]pyrimidin-4-yl)-2-((tetrahydro-2H-pyran-4-yl)oxy)benzonitrile] | 7.46 | 7.72
O=C1NCc2cc(-c3cc4c(-c5ccc6c(c5)CNC6=O)ncnc4[nH]3)ccc21 [Example 224, 5,5′-(7H-pyrrolo[2,3-d]pyrimidine-4,6-diyl)bis(isoindolin-1-one)] | 6.00 | 6.00
N#Cc1cc(-c2ccnc3[nH]c(C4CC4)cc23)ccc1OC1CCOCC1 [Example 50, 5-(2-cyclopropyl-1H-pyrrolo[2,3-b]pyridin-4-yl)-2-((tetrahydro-2H-pyran-4-yl)oxy)benzonitrile] | 6.35 | 6.19
N#Cc1cc(-c2ncnc3[nH]c(-c4cccc(N5CCOCC5)c4)cc23)ccc1N1CC(O)C1 [Example 110, 2-(3-hydroxyazetidin-1-yl)-5-(6-(3-morpholinophenyl)-7H-pyrrolo[2,3-d]pyrimidin-4-yl)benzonitrile] | 7.24 | 7.90
N#Cc1cc(-c2ccnc3[nH]c(-c4ccc(N5CCOCC5)cc4)cc23)ccc1OC1CCN(C(=O)CO)CC1 [Example 19, 2-((1-(2-hydroxyacetyl)piperidin-4-yl)oxy)-5-(2-(4-morpholinophenyl)-1H-pyrrolo[2,3-b]pyridin-4-yl)benzonitrile] | 8.43 | 8.72
N#Cc1cc(-c2ncnc3[nH]c(-c4ccc(N5CCOCC5)cc4)cc23)ccc1OC1CCS(=O)(=O)CC1 [Example 240, 2-((1,1-dioxidotetrahydro-2H-thiopyran-4-yl)oxy)-5-(6-(4-morpholinophenyl)-7H-pyrrolo[2,3-d]pyrimidin-4-yl)benzonitrile] | 7.47 | 8.42
4-(2-cyano-4-(2-(4-(4-(2,2-difluoroethyl)piperazin-1-yl)phenyl)-3H-imidazo[4,5-b]pyridin-7-yl)phenoxy)piperidine-1-sulfonamide [Example 263] | 8.20 | 8.51
N#Cc1cc(-c2ncnc3[nH]c(-c4ccc(N5CCOCC5)cc4)cc23)ccc1OC1CC2(COC2)C1 [Example 164, 2-(2-Oxaspiro[3.3]heptan-6-yloxy)-5-(6-(4-morpholinophenyl)-7H-pyrrolo[2,3-d]pyrimidin-4-yl)benzonitrile] | 7.02 | 7.25
N#Cc1cc(-c2ncnc3[nH]c(-c4ccc(N5CCN(C6COC6)CC5)cc4)cc23)ccc1OC1CCOCC1 [Example 105, 5-(6-(4-(4-(oxetan-3-yl)piperazin-1-yl)phenyl)-7H-pyrrolo[2,3-d]pyrimidin-4-yl)-2-((tetrahydro-2H-pyran-4-yl)oxy)benzonitrile] | 8.26 | 9.06
CN1CCN(c2ccc(-c3nc4c(-c5ccc(OC6CCN(C(=O)C(F)F)CC6)c(C#N)c5)ncnc4[nH]3)cc2)CC1 [Example 268, 2-((1-(2,2-difluoroacetyl)piperidin-4-yl)oxy)-5-(8-(4-(4-methylpiperazin-1-yl)phenyl)-9H-purin-6-yl)benzonitrile] | 8.65 | 8.41
